# PMC12030627, “Radioiodinated Bicyclic RGD Peptide Derivatives for Enhanced Tumor Accumulation” (Pharmaceuticals, 2025)
# Where two headings read alike, the source gives them in different places. Starred links: 1 amine or outer side, 2 acyl side, 3 side chain; linkers in the order of their positions; H or OH if unused. Positions of bridges follow the written chain, without caps; N, C: chain ends. Non-standard residues stand in square brackets, D forms with d. Residues, ends and D or L forms follow the SMILES beside them. *: point of attachment. TBMB = c1c(C[*:1])cc(C[*:3])cc1C[*:2]; Palmitoyl = CCCCCCCCCCCCCCCC(=O)*; Benzoyl(3-I) = O=C(c1cccc(I)c1)*; 4Abz = Nc1ccc(C(=O)O)cc1
# Assay: Biodistribution in U-87 MG tumor-bearing mice
# Assay type: in vivo, BALB/c nu-nu mice
# Conditions: male, BALB/c nu-nu, mouse, iv, 37 kBq, total radioactivity; for tissue uptake at 5 min / tissue uptake dose at 5 min: 5 min after i.v. administration; for tissue uptake at 0.5 h / tissue uptake dose at 0.5 h: 30 min after i.v. administration; for tissue uptake at 1 h / tissue uptake dose at 1 h: 1 h after i.v. administration; for tissue uptake at 2 h / tissue uptake dose at 2 h: 2 h after i.v. administration; for tissue uptake at 6 h / tissue uptake dose at 6 h: 6 h after i.v. administration
# How it was run: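 Male BALB/c nu/nu mice bearing subcutaneous U-87 MG (right leg), or also A549 (left leg), tumors ~10 mm; 37 kBq radiotracer given IV in PBS-0.1% Tween 80. Single-tumor mice sampled 5 min–24 h, co-implanted mice at 2 h (or 30 min–4 h for dimer); organ radioactivity counted by NaI scintillation, expressed as %ID/g.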
# [1] = U-87 MG tumor, U-87 MG-bearing mice, mean ± SD, n = 3, read-out: Radioactivity in U-87 MG tumor
# [2] = blood, U-87 MG-bearing mice, mean ± SD, n = 3, read-out: Radioactivity in blood
# [3] = bone, U-87 MG-bearing mice, mean ± SD, n = 3, read-out: Radioactivity in bone
# [4] = brain, U-87 MG-bearing mice, mean ± SD, n = 3, read-out: Radioactivity in brain
# [5] = heart, U-87 MG-bearing mice, mean ± SD, n = 3, read-out: Radioactivity in heart
# [6] = kidneys, U-87 MG-bearing mice, mean ± SD, n = 3, read-out: Radioactivity in kidneys
# [7] = large intestine, U-87 MG-bearing mice, mean ± SD, n = 3, read-out: Radioactivity in large intestine
# [8] = liver, U-87 MG-bearing mice, mean ± SD, n = 3, read-out: Radioactivity in liver
# [9] = lung, U-87 MG-bearing mice, mean ± SD, n = 3, read-out: Radioactivity in lung
# [10] = muscle, U-87 MG-bearing mice, mean ± SD, n = 3, read-out: Radioactivity in muscle
# [11] = pancreas, U-87 MG-bearing mice, mean ± SD, n = 3, read-out: Radioactivity in pancreas
# [12] = small intestine, U-87 MG-bearing mice, mean ± SD, n = 3, read-out: Radioactivity in small intestine
# [13] = spleen, U-87 MG-bearing mice, mean ± SD, n = 3, read-out: Radioactivity in spleen
# [14] = stomach, U-87 MG-bearing mice, mean ± SD, n = 3, read-out: Radioactivity in stomach
# [15] = thyroid, U-87 MG-bearing mice, mean ± SD, n = 3, read-out: Radioactivity in thyroid
smiles,measurement,setting,value
CCCCCCCCCCCCCCCC(=O)N[C@@H](CCCCNC(=O)c1cccc(I)c1)C(=O)N1CCC[C@H]1C(=O)N1CCC[C@H]1C(=O)N1CCC[C@H]1C(=O)N[C@@H](CO)C(=O)NCC(=O)Nc1ccc(C(=O)N[C@@H](CO)C(=O)NCC(=O)N[C@H]2CSCc3cc4cc(c3)CSC[C@@H](NC(=O)[C@H](CCC(N)=O)NC(=O)[C@@H]3CCCN3C(=O)[C@H](Cc3c[nH]cn3)NC2=O)C(=O)N[C@@H](CCCNC(=N)N)C(=O)NCC(=O)N[C@@H](CC(=O)O)C(=O)N[C@@H](C(N)=O)CSC4)cc1 [[^125I]bcRGDpal] (Palmitoyl-K(Benzoyl(3-I))PPPSG[4Abz]SGCHPQ[dC]RGD[dC]-NH2; linker 10-14-18 via TBMB),tissue uptake at 5 min,[1],1.4 ± 0.2 %ID/g
same,tissue uptake at 0.5 h,[1],3.4 ± 0.5 %ID/g
same,tissue uptake at 1 h,[1],4 ± 0.5 %ID/g
same,tissue uptake at 2 h,[1],3.9 ± 0.2 %ID/g
same,tissue uptake at 6 h,[1],2.1 ± 0.4 %ID/g
same,tissue uptake at 12 h,"U-87 MG tumor, 12 h after i.v. administration, U-87 MG-bearing mice, mean ± SD, n = 3, read-out: Radioactivity in U-87 MG tumor",0.9 ± 0.1 %ID/g
same,tissue uptake at 24 h,"U-87 MG tumor, 24 h after i.v. administration, U-87 MG-bearing mice, mean ± SD, n = 3, read-out: Radioactivity in U-87 MG tumor",0.3 ± 0.1 %ID/g
same,tissue to tissue ratio,"U-87 MG tumor/blood, all time points (5 min to 24 h)",< 1
same,tissue uptake at 5 min,[2],15.6 ± 1 %ID/g
same,tissue uptake at 0.5 h,[2],12.2 ± 0.8 %ID/g
same,tissue uptake at 1 h,[2],9.9 ± 0.5 %ID/g
same,tissue uptake at 2 h,[2],7.8 ± 0.4 %ID/g
same,tissue uptake at 6 h,[2],4.5 ± 0.4 %ID/g
same,tissue uptake at 12 h,"blood, 12 h after i.v. administration, U-87 MG-bearing mice, mean ± SD, n = 3, read-out: Radioactivity in blood",2 ± 0.3 %ID/g
same,tissue uptake at 24 h,"blood, 24 h after i.v. administration, U-87 MG-bearing mice, mean ± SD, n = 3, read-out: Radioactivity in blood",0.5 %ID/g
same,tissue uptake at 5 min,[3],1.4 ± 0.1 %ID/g
same,tissue uptake at 0.5 h,[3],1.7 ± 0.6 %ID/g
same,tissue uptake at 1 h,[3],1.1 ± 0.3 %ID/g
same,tissue uptake at 2 h,[3],1.3 ± 0.4 %ID/g
same,tissue uptake at 6 h,[3],0.7 ± 0.1 %ID/g
same,tissue uptake at 12 h,"bone, 12 h after i.v. administration, U-87 MG-bearing mice, mean ± SD, n = 3, read-out: Radioactivity in bone",0.4 %ID/g
same,tissue uptake at 24 h,"bone, 24 h after i.v. administration, U-87 MG-bearing mice, mean ± SD, n = 3, read-out: Radioactivity in bone",0.1 ± 0.1 %ID/g
same,tissue uptake at 5 min,[4],0.5 ± 0.1 %ID/g
same,tissue uptake at 0.5 h,[4],0.3 ± 0.1 %ID/g
same,tissue uptake at 1 h,[4],0.3 %ID/g
same,tissue uptake at 2 h,[4],0.2 %ID/g
same,tissue uptake at 6 h,[4],0.1 %ID/g
same,tissue uptake at 12 h,"brain, 12 h after i.v. administration, U-87 MG-bearing mice, mean ± SD, n = 3, read-out: Radioactivity in brain",0.1 %ID/g
same,tissue uptake at 5 min,[5],6.6 ± 0.1 %ID/g
same,tissue uptake at 0.5 h,[5],4.7 ± 0.4 %ID/g
same,tissue uptake at 1 h,[5],4.3 ± 0.3 %ID/g
same,tissue uptake at 2 h,[5],3.1 ± 0.2 %ID/g
same,tissue uptake at 6 h,[5],1.7 %ID/g
same,tissue uptake at 12 h,"heart, 12 h after i.v. administration, U-87 MG-bearing mice, mean ± SD, n = 3, read-out: Radioactivity in heart",0.8 ± 0.1 %ID/g
same,tissue uptake at 24 h,"heart, 24 h after i.v. administration, U-87 MG-bearing mice, mean ± SD, n = 3, read-out: Radioactivity in heart",0.2 %ID/g
same,tissue uptake at 5 min,[6],9 ± 0.2 %ID/g
same,tissue uptake at 0.5 h,[6],8.3 ± 0.9 %ID/g
same,tissue uptake at 1 h,[6],7.7 ± 0.2 %ID/g
same,tissue uptake at 2 h,[6],6.7 ± 0.6 %ID/g
same,tissue uptake at 6 h,[6],4.2 ± 0.6 %ID/g
same,tissue uptake at 12 h,"kidneys, 12 h after i.v. administration, U-87 MG-bearing mice, mean ± SD, n = 3, read-out: Radioactivity in kidneys",1.7 ± 0.2 %ID/g
same,tissue uptake at 24 h,"kidneys, 24 h after i.v. administration, U-87 MG-bearing mice, mean ± SD, n = 3, read-out: Radioactivity in kidneys",0.4 %ID/g
same,tissue uptake at 5 min,[7],0.9 ± 0.1 %ID/g
same,tissue uptake at 0.5 h,[7],1.4 ± 0.2 %ID/g
same,tissue uptake at 1 h,[7],1.4 ± 0.1 %ID/g
same,tissue uptake at 2 h,[7],6.9 ± 1.1 %ID/g
same,tissue uptake at 6 h,[7],11.8 ± 2 %ID/g
same,tissue uptake at 12 h,"large intestine, 12 h after i.v. administration, U-87 MG-bearing mice, mean ± SD, n = 3, read-out: Radioactivity in large intestine",7.5 ± 0.8 %ID/g
same,tissue uptake at 24 h,"large intestine, 24 h after i.v. administration, U-87 MG-bearing mice, mean ± SD, n = 3, read-out: Radioactivity in large intestine",2.3 ± 1.1 %ID/g
same,tissue uptake at 5 min,[8],17.6 ± 0.9 %ID/g
same,tissue uptake at 0.5 h,[8],19 ± 2.1 %ID/g
same,tissue uptake at 1 h,[8],15.8 ± 0.9 %ID/g
same,tissue uptake at 2 h,[8],12.3 ± 0.3 %ID/g
same,tissue uptake at 6 h,[8],6 ± 0.2 %ID/g
same,tissue uptake at 12 h,"liver, 12 h after i.v. administration, U-87 MG-bearing mice, mean ± SD, n = 3, read-out: Radioactivity in liver",1.9 ± 0.2 %ID/g
same,tissue uptake at 24 h,"liver, 24 h after i.v. administration, U-87 MG-bearing mice, mean ± SD, n = 3, read-out: Radioactivity in liver",0.5 %ID/g
same,tissue uptake at 5 min,[9],11.8 ± 1.3 %ID/g
same,tissue uptake at 0.5 h,[9],11.2 ± 1 %ID/g
same,tissue uptake at 1 h,[9],9.6 ± 1.3 %ID/g
same,tissue uptake at 2 h,[9],7.8 ± 1 %ID/g
same,tissue uptake at 6 h,[9],4.4 ± 0.5 %ID/g
same,tissue uptake at 12 h,"lung, 12 h after i.v. administration, U-87 MG-bearing mice, mean ± SD, n = 3, read-out: Radioactivity in lung",2.2 ± 0.3 %ID/g
same,tissue uptake at 24 h,"lung, 24 h after i.v. administration, U-87 MG-bearing mice, mean ± SD, n = 3, read-out: Radioactivity in lung",0.6 ± 0.1 %ID/g
same,tissue uptake at 5 min,[10],1.4 ± 0.3 %ID/g
same,tissue uptake at 0.5 h,[10],1.6 ± 0.2 %ID/g
same,tissue uptake at 1 h,[10],1.4 ± 0.2 %ID/g
same,tissue uptake at 2 h,[10],1.1 ± 0.1 %ID/g
same,tissue uptake at 6 h,[10],0.6 ± 0.1 %ID/g
same,tissue uptake at 12 h,"muscle, 12 h after i.v. administration, U-87 MG-bearing mice, mean ± SD, n = 3, read-out: Radioactivity in muscle",0.3 %ID/g
same,tissue uptake at 24 h,"muscle, 24 h after i.v. administration, U-87 MG-bearing mice, mean ± SD, n = 3, read-out: Radioactivity in muscle",0.1 %ID/g
same,tissue uptake at 5 min,[11],2.8 ± 0.2 %ID/g
same,tissue uptake at 0.5 h,[11],2.5 ± 0.3 %ID/g
same,tissue uptake at 1 h,[11],1.9 ± 0.1 %ID/g
same,tissue uptake at 2 h,[11],1.6 ± 0.1 %ID/g
same,tissue uptake at 6 h,[11],1.2 ± 0.3 %ID/g
same,tissue uptake at 12 h,"pancreas, 12 h after i.v. administration, U-87 MG-bearing mice, mean ± SD, n = 3, read-out: Radioactivity in pancreas",0.4 %ID/g
same,tissue uptake at 24 h,"pancreas, 24 h after i.v. administration, U-87 MG-bearing mice, mean ± SD, n = 3, read-out: Radioactivity in pancreas",0.1 %ID/g
same,tissue uptake at 5 min,[12],2.3 ± 0.2 %ID/g
same,tissue uptake at 0.5 h,[12],4.5 ± 0.6 %ID/g
same,tissue uptake at 1 h,[12],7 ± 0.3 %ID/g
same,tissue uptake at 2 h,[12],9.3 ± 0.9 %ID/g
same,tissue uptake at 6 h,[12],4 ± 0.2 %ID/g
same,tissue uptake at 12 h,"small intestine, 12 h after i.v. administration, U-87 MG-bearing mice, mean ± SD, n = 3, read-out: Radioactivity in small intestine",1.9 ± 0.5 %ID/g
same,tissue uptake at 24 h,"small intestine, 24 h after i.v. administration, U-87 MG-bearing mice, mean ± SD, n = 3, read-out: Radioactivity in small intestine",0.3 %ID/g
same,tissue uptake at 5 min,[13],5.1 ± 0.4 %ID/g
same,tissue uptake at 0.5 h,[13],5.9 ± 0.8 %ID/g
same,tissue uptake at 1 h,[13],4.6 ± 0.6 %ID/g
same,tissue uptake at 2 h,[13],3.7 ± 0.1 %ID/g
same,tissue uptake at 6 h,[13],1.9 ± 0.2 %ID/g
same,tissue uptake at 12 h,"spleen, 12 h after i.v. administration, U-87 MG-bearing mice, mean ± SD, n = 3, read-out: Radioactivity in spleen",0.8 ± 0.1 %ID/g
same,tissue uptake at 24 h,"spleen, 24 h after i.v. administration, U-87 MG-bearing mice, mean ± SD, n = 3, read-out: Radioactivity in spleen",0.2 %ID/g
same,tissue uptake dose at 5 min,[14],0.5 ± 0.1 %ID
same,tissue uptake dose at 0.5 h,[14],0.6 ± 0.1 %ID
same,tissue uptake dose at 1 h,[14],0.7 ± 0.1 %ID
same,tissue uptake dose at 2 h,[14],0.8 ± 0.1 %ID
same,tissue uptake dose at 6 h,[14],0.4 %ID
same,tissue uptake dose at 12 h,"stomach, 12 h after i.v. administration, U-87 MG-bearing mice, mean ± SD, n = 3",0.4 ± 0.3 %ID
same,tissue uptake dose at 24 h,"stomach, 24 h after i.v. administration, U-87 MG-bearing mice, mean ± SD, n = 3",0.1 ± 0.1 %ID
same,tissue uptake dose at 5 min,[15],0.1 %ID
same,tissue uptake dose at 0.5 h,[15],0.1 ± 0.1 %ID
same,tissue uptake dose at 1 h,[15],0.1 ± 0.1 %ID
same,tissue uptake dose at 2 h,[15],0.1 ± 0.1 %ID
same,tissue uptake dose at 6 h,[15],0.1 %ID
